# Counter-ions that a name gives are not always drawn.
# Target: T1, Hormone-sensitive lipase (HSL) (Homo sapiens, UniProt Q05469)
# T1 sequence (Q05469 1-1076): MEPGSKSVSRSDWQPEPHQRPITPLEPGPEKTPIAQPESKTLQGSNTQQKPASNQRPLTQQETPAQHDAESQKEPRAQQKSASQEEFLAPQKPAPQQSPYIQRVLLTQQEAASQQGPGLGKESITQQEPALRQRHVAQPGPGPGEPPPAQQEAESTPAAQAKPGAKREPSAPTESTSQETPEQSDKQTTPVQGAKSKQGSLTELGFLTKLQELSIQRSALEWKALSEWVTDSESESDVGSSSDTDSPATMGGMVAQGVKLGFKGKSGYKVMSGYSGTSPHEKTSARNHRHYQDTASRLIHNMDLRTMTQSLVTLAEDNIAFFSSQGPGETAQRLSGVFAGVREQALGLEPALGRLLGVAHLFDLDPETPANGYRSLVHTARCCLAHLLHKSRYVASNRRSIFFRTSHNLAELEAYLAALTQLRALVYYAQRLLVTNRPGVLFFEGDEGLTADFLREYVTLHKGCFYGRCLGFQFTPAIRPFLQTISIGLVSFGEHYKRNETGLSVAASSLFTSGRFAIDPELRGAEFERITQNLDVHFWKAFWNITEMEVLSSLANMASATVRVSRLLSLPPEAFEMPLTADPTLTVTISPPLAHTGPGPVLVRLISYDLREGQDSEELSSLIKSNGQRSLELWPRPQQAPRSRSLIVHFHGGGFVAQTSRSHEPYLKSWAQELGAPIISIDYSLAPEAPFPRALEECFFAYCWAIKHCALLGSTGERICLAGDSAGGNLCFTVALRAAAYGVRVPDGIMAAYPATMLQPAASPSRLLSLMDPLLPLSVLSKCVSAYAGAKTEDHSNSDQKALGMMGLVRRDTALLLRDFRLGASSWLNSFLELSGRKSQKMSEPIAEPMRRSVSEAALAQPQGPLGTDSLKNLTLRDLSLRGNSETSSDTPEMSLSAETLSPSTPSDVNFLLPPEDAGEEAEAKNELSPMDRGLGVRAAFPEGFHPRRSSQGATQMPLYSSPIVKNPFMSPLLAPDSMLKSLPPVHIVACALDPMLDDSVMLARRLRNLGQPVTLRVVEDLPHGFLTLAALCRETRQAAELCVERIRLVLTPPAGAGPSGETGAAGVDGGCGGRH
# Assay: biochemical
# Details: 10 μM sample concentration; percent activity relative to a non-inhibited sample (no compound)
# Description: Materials. The Hormone-sensitive lipase was provided by Dr. Cecilia Holm, from Lund University Sweden or produced and purified by Novo Nordisk (NN) using the reagents and protocols used by Dr. Holm. […] All other reagents are of commercial grade and obtained from various commercial sources.
# BSA is added as product receptor. The transfer of the fluorochrome from the lipid phase to the water (BSA) phase changes the fluorescent properties of the fluorochrome. The changes can be monitored on a fluorimeter with an excitation wavelength of 450 nm and an emission wavelength of 545 nm.
# Compound and HSL (20 μL compound, 10 μL enzyme and 70 μL PED-BSA buffer) is pre-incubated for 30 min at 25° C. before addition of substrate (100 μL). Amount of formed product is measured after 120 min incubation at 37° C.
row,SMILES,Test 3190.1 HSL_FL % ACTIVITY All [%]
1,CN(C(=O)Oc1ccc(OC(F)(F)C(F)(F)F)cc1)c1ccccc1 [Example 20],51

# Same assay, conditions: 10 μM sample concentration; percent activity relative to a non-inhibited sample (no compound); read-out: Test 3190.1 HSL_FL % ACTIVITY All
row,SMILES,activity at 10 µM [%]
1,"COc1ccc(OC)c(-c2c(C)c3ccc(OC(=O)N4CCCc5ccccc54)cc3oc2=O)c1 [Example 81, 3,4-Dihydro-2H-quinoline-1-carboxylic acid 3-(2,5-dimethoxy-phenyl)-4-methyl-2-oxo-2H-chromen-7-yl ester]",36
2,"Cc1c(Cc2ccccc2)c(=O)oc2cc(OC(=O)N3CCCc4ccccc43)ccc12 [Example 73, 3,4-Dihydro-2H-quinoline-1-carboxylic acid 3-benzyl-4-methyl-2-oxo-2H-chromen-7-yl ester]",39
3,"O=C(Oc1ccc(Oc2c(Cl)cncc2Cl)cc1)N1CCOCC1 [Example 85, Morpholine-4-carboxylic acid 4-(3,5-dichloro-pyridin-4-yloxy)-phenyl ester]",88

# Same assay, conditions: read-out: Test 3190.1 HSL_FL % ACTIVITY All
row,SMILES,activity at 10 µM [%]
1,"COc1ccc(OC)c(-c2c(C)c3ccc(OC(=O)N(C)c4ccccc4)cc3oc2=O)c1 [Example 48, Methyl-phenyl-carbamic acid 3-(2,5-dimethoxy-phenyl)-4-methyl-2-oxo-2H-chromen-7-yl ester]",15
2,"CN(C(=O)Oc1ccc(-c2ccc(Br)cc2)cc1)c1ccccc1 [Example 24, Methyl-phenyl-carbamic acid 4′-bromo-biphenyl-4-yl-ester]",30
3,"CN(C(=O)Oc1ccc(OC(C)(C)C)cc1)c1ccccc1 [Example 11, Methyl-phenyl-carbamic acid 4-tert-butoxy-phenyl ester]",17

# Target: T1, Hormone-sensitive lipase (HSL)
# Assay: Test 2848.2: high-volume screening assay, para-nitrophenyl butyrate (p-NPB) substrate
# Format: biochemical
# Details: UV-abs 405 nm, 20 min room temp, % Eff (% Inhibition)
# From the text: Materials. The Hormone-sensitive lipase was provided by Dr. Cecilia Holm, from Lund University Sweden or produced and purified by Novo Nordisk (NN) using the reagents and protocols used by Dr. Holm. The substrates used are: ^3H-labeled triolein (TO) from Amersham, Buckinghamshire, U.K. cat No. TRA191; 5–20 Ci/mmol dissolved in toluene, triolein (Sigma, Cat. No. T-1740), fluorochrome-labeled triacylglyceride (cis-octadec-9-enoic acid 2-[12-(7-nitrobenzo[1,2,5]oxadiazol-4-ylamino)dodecanoyloxy]-1-cis-octadec-9-enoyloxymethyl-ethyl ester) prepared by Novo Nordisk (NN) by conventional methods, and 1,3-(di[^3H]-stearin), 2-(PEG-Boitin)glycerol prepared in collaboration with Amersham Pharmacia Biotech, UK and described in WO 01/073442. Phosphatidyl choline (PC) and phosphatidyl inositol (PI) are from Sigma (St Luis Mo. cat. Nos. P-3556 and P-5954 respectively). All other reagents are of commercial grade and obtained from various commercial sources.
# 2848.2: This high-volume screening assay uses para-nitrophenyl butyrate (p-NPB) as substrate for HSL. HSL cleaves p-NPB and the reaction is monitored as an increase in the concentration of para-nitrophenol (p-NP). p-NP can be monitored as an increase in UV-absorbance at 405 nm. The reaction is carried out at room-temp. for 20 min. The action is not stopped, but instead UV-abs is measured at a fixed time (20 min.) Due to autohydrolysis of the substrate the reaction is read at t=0 min. too and t=20 min. and the increase in Abs is calculated as the difference between the two readings. When a compound that inhibits HSL is present, it results in a relative decrease in UV-absorbance. % Eff(% Inhibition)=(S−S0Eff)/(SmaxEff−S0Eff)×100 Where S=signal in UV-abs., S0Eff=assaybuffer alone, SmaxEff=Assaybuffer with the lipase inhibitor.
row,SMILES,Test 2848.2 HSL % Inhibition All [%]
1,"O=C(NCCc1ccccc1)n1nc(-c2ccc(Oc3ccccc3)cc2)cc1N1CCOCC1 [Example 127, 5-Morpholin-4-yl-3-(4-phenoxyphenyl)-pyrazole-1-carboxylic acid phenethylamide]",58.7
2,"O=C(Nc1ccc(Cl)c(Cl)c1)n1c(-c2ccccc2)nc2ccccc21 [Example 129, N-(3,4-Dichlorophenyl)-2-phenyl-benzimidazole-1-carboxamide]",27
3,"CN(C)C(=O)On1ccc2ccc(S(C)(=O)=O)cc21 [Example 114, Dimethylcarbamic acid 6-methanesulfonyl-indol-1-yl ester]",42.4
4,"CC(C)Sc1nnc(OC(=O)N(C)C)n1-c1cccc(C(F)(F)F)c1 [Example 130, Dimethyl-carbamic acid 5-isopropylsulfanyl-4-(3-trifluoromethyl-phenyl)-4H-[1,2,4]triazol-3-yl ester]",30.1
5,"O=C(Nc1ccc(Cl)cc1)n1nc(-c2ccc(Cl)cc2)cc1CCCO [Example 126, N-(4-Chlorophenyl)-3-(4-chlorophenyl)-5-(3-hydroxypropyl)-pyrazole-1-carboxamide]",33
6,"O=C(NC1CCCCC1)ON=C1c2ccccc2CCc2ccccc21 [Example 105, 10,11-Dihydro-dibenzo[a,d]cyclohepten-5-one O-cyclohexylcarbamoyl-oxime]",26.8
7,"COc1ccc2c(OC(=O)N(C)C)cc(=O)n(C)c2c1 [Example 132, Dimethyl-carbamic acid 7-methoxy-1-methyl-2-oxo-1,2-dihydro-quinolin-4-yl ester]",19.6
8,"CCCNC(=O)ON=C(C=Cc1ccc(Br)cc1)CCC(C)C [Example 111, 1-(4-Bromophenyl)-6-methyl-hept-1-en-3-one O-propylcarbamoyl-oxime]",36.2
9,"CN(C)C(=O)Oc1c(-c2ccccc2)cn(Cc2ccccc2)c(=O)c1-c1ccccc1 [Example 131, Dimethyl carbamic acid 1-benzyl-2-oxo-3,5-diphenyl-1,2-dihydro-pyridin-4-yl ester]",21.6
10,"CC12CCC(CC1=NOC(=O)NC1CCCCC1)C2(C)C (stereo not drawn) [Example 107, 1,7,7-Trimethyl-bicyclo[2.2.1]heptan-2-one O-cyclohexylcarbamoyl-oxime]",59.9
11,"CCCCCCC(C=Cc1ccc(Cl)cc1)=NOC(=O)NC(C)C [Example 109, 1-(4-Chloro-phenyl)-non-1-en-3-one O-isopropylcarbamoyl-oxime]",15.9
12,"O=C(Nc1ccccc1)n1ncc(S(=O)(=O)c2ccc(Cl)cc2)c1-c1ccc(Cl)cc1 [Example 128, N-Phenyl-4-(4-chlorobenzenesulfonyl)-5-(4-chlorophenyl)-pyrazole-1-carboxamide]",33.8
13,"Cc1ccc(NC(C=O)=NOC(=O)NC2CCCCC2)cc1 [Example 104, 2-Oxo-N-p-tolylacetamide O-(cyclohexylcarbamoyl)-oxime]",19.8
14,"CC(C)CCC(C=Cc1ccc(Br)cc1)=NOC(=O)NC(C)C [Example 108, 1-(4-Bromophenyl)-6-methyl-hept-1-en-3-one O-isopropylcarbamoyl-oxime]",37.2
15,"CN(C)C(=O)On1nnc2ccccc2c1=O [Example 116, Dimethylcarbamic acid 4-oxo-1,2,3-benzotriazin-3-yl ester]",23.5
16,"CCCCCCC(C=Cc1ccc(Cl)cc1)=NOC(=O)NC1CCCCC1 [Example 106, 1-(4-Chlorophenyl)-non-1-en-3-one O-cyclohexylcarbamoyl-oxime]",23.8
17,"CNC(=O)ON=Cc1c(Br)cnn1Cc1ccc(Cl)cc1 [Example 110, 4-Bromo-2-(4-chlorobenzyl)-2H-pyrazole-3-carbaldehyde O-methylcarbamoyl-oxime]",18.8

# Tested on: not given
# Assay: not given
# Details: not given
row,melting point [°C],SMILES
1,237 to 238,COc1ccc(CN2CCN(C(=O)Oc3ccc(Oc4ccc(C(F)(F)F)cn4)cc3)CC2)cc1 (as salt: hydrochloride)
2,214 to 215,COc1cccc(CN2CCN(C(=O)Oc3ccc(Oc4ccc(C(F)(F)F)cn4)cc3)CC2)c1 (as salt: hydrochloride)
3,143,O=C(Oc1ccc(Oc2ccc(C(F)(F)F)cn2)cc1)N1CCCN(Cc2ccc(-c3ccccc3)cc2)CC1
4,114 to 115,O=C(Oc1ccc(Oc2ccc(C(F)(F)F)cn2)cc1)N1CC2CC1CN2Cc1ccccc1 (stereo not drawn)
5,117,O=C(Oc1ccc(Oc2ccc(C(F)(F)F)cn2)cc1)N1CCN(c2ccccc2)CC1
6,250 to 252,Cc1ccc(CN2CCN(C(=O)Oc3ccc(Oc4ccc(C(F)(F)F)cc4)cc3)CC2)cc1 (as salt: hydrochloride)

# Reference: patent US7067517B2 (priority 2001, dated 2006)
